Our source for the Kd, KD and stoichiometry N values is paper PMC12077194, “Structural basis for spermidine recognition and modulation of Acinetobacter baumannii multidrug efflux regulator AmvR” (mBio, 2025).

One assay addresses T1, AmvR^E71A (Acinetobacter baumannii, UniProt A0A7U3Y8S7, E71A).
T1 sequence (A0A7U3Y8S7 4-192 E71A): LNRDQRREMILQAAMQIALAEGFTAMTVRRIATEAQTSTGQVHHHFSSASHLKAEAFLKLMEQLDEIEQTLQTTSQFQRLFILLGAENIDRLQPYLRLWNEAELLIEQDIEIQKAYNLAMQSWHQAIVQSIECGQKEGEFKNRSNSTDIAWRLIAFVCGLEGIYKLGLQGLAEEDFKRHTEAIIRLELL
The experiment in a line: ITC of polyamines with AmvR^E71A mutant. Type of assay: binding. As to the method:
(§1) The AmvR^WT or mutant proteins were purified with affinity chromatography followed by size-exclusion chromatography and buffer-exchange with buffer D. The polyamines were also dissolved in Buffer D. The ITC experiments were performed at 20°C using a MicroCal PEAQ-ITC (Malvern Panalytical Ltd) using 20 injections of 2 µL or 25 injections of 1.6 µL. A solution of 100 µM AmvR wild-type or mutants was loaded into the cell, whereas a 1 mM solution of polyamines was loaded into the syringe. The measured heat changes of the binding reactions were integrated and analyzed using the standard “one set of sites” model implemented in the Origin software package (OriginLab) to determine the binding stoichiometry (N-value) and the equilibrium dissociation constant (Kd).

Another assay deals with T2, AmvR (Acinetobacter baumannii, UniProt A0A7U3Y8S7).
T2 sequence (A0A7U3Y8S7 4-192): T1 sequence (A0A7U3Y8S7 4-192 E71A)
Kind of assay: Isothermal titration calorimetry of polyamines with apo AmvR wild-type. Type of assay: binding. Conditions: ITC, 20°C, read-out: equilibrium dissociation constant (Kd). As to the method: as §1
For orientation: Isothermal titration calorimetry measures the heat released or taken up as one component is titrated into another.

The target of a further assay is T3, AmvR E65A (Acinetobacter baumannii, UniProt A0A7U3Y8S7, E65A).
T3 sequence (A0A7U3Y8S7 4-192 E65A): T1 sequence (A0A7U3Y8S7 4-192 E71A)
The experiment in a line: ITC of spermidine with AmvR E65A mutant. Format: binding. As to the method:
as §1

In another assay the target is T4, AmvR L86A (Acinetobacter baumannii, UniProt A0A7U3Y8S7, L86A).
T4 sequence (A0A7U3Y8S7 4-192 L86A): T1 sequence (A0A7U3Y8S7 4-192 E71A)
Kind of assay: ITC of spermidine with AmvR L86A mutant. Format: binding. On the procedure:
as §1

A further assay addresses T5, AmvR E106A (Acinetobacter baumannii, UniProt A0A7U3Y8S7, E106A).
T5 sequence (A0A7U3Y8S7 4-192 E106A): T1 sequence (A0A7U3Y8S7 4-192 E71A)
The experiment in a line: ITC of spermidine with AmvR E106A mutant. Format: binding. On the procedure: as §1

For another assay, the target named is T6, AmvR W102A (Acinetobacter baumannii, UniProt A0A7U3Y8S7, W102A).
T6 sequence (A0A7U3Y8S7 4-192 W102A): T1 sequence (A0A7U3Y8S7 4-192 E71A)
Kind of assay: ITC of spermidine with AmvR W102A mutant. Type of assay: binding. As to the method: as §1

A further assay addresses T7, AmvR^E164A (Acinetobacter baumannii, UniProt A0A7U3Y8S7, E164A).
T7 sequence (A0A7U3Y8S7 4-192 E164A): T1 sequence (A0A7U3Y8S7 4-192 E71A)
The experiment in a line: ITC of spermidine with AmvR^E164A mutant. Format: binding. On the procedure:
as §1

The next assay concerns the target T8, AmvR W126E (Acinetobacter baumannii, UniProt A0A7U3Y8S7, W126E).
T8 sequence (A0A7U3Y8S7 4-192 W126E): T1 sequence (A0A7U3Y8S7 4-192 E71A)
Kind of assay: ITC of spermidine with AmvR W126E mutant. Format: binding. On the procedure:
as §1

For a further assay, the target named is T9, AmvR L99E (Acinetobacter baumannii, UniProt A0A7U3Y8S7, L99E).
T9 sequence (A0A7U3Y8S7 4-192 L99E): T1 sequence (A0A7U3Y8S7 4-192 E71A)
The experiment in a line: ITC of spermidine with AmvR L99E mutant. Format: binding. As to the method: as §1

Another assay deals with T10, AmvR^L99Q (Acinetobacter baumannii, UniProt A0A7U3Y8S7, L99Q).
T10 sequence (A0A7U3Y8S7 4-192 L99Q): T1 sequence (A0A7U3Y8S7 4-192 E71A)
The experiment in a line: ITC of spermidine with AmvR^L99Q mutant. Format: binding. On the procedure: as §1

Another assay has as its target T11, AmvR N103A (Acinetobacter baumannii, UniProt A0A7U3Y8S7, N103A).
T11 sequence (A0A7U3Y8S7 4-192 N103A): T1 sequence (A0A7U3Y8S7 4-192 E71A)
Kind of assay: ITC of spermidine with AmvR N103A mutant. Format: binding. As to the method:
as §1

For assay [1], the target named is AmvR (a.a. 4-192) from Acinetobacter baumannii, wild type (Acinetobacter baumannii). The experiment in a line: SEC; Superdex 75 Increase 10/300 GL, buffer F (200 mM NaCl, 20 mM Tris pH 8.0, 5 mM DTT), compared with gel filtration standards; AmvR^WT also with 2x and 10x spermidine. (In general: Size exclusion chromatography separates by hydrodynamic size, large species first.)

A word on the Kd: it is the equilibrium constant for the complex coming apart. The term stoichiometry N denotes the number of molecules, sites or subunits per partner or assembly.

As to `NCCCCCN` [cadaverine], the results for the dissociation constant (Kd) at AmvR^E71A and on AmvR were 69.9 µM and 5.88 µM, respectively.
As for `NCCCCN` [putrescine], the dissociation constant Kd at AmvR was found to be 9.52 µM.
For the compound `NCCCCNCCCN` [spermidine], the dissociation constant Kd was found to be 0.96 µM at AmvR E65A; 6.21 µM at AmvR L86A; 7.09 µM at AmvR E106A; 40.5 µM at AmvR^E71A; 0.73 µM on AmvR; 7.52 µM on AmvR W126E. The Kd on AmvR L99E was found to be 5.71 µM; on AmvR^L99Q it was 0.75 µM; at AmvR N103A it was 1.22 µM. Further, the KD result is reported as “completely eliminated spermidine binding” at AmvR W102A and “eliminated spermidine binding” at AmvR^E164A.
Take `NCCCNCCCCNCCCN` [spermine]: the values for the Kd at AmvR^E71A and on AmvR were 88.5 µM and 2.16 µM, respectively.
Compound “AmvR (a.a. 4-192) from Acinetobacter baumannii, wild type (natural protein)” returned a stoichiometry N in [1] of 2.
